{"source": "patent US6903089B1", "about": "“Lactam-substituted pyrazolopyridine derivatives” (Bayer Aktiengesellschaft, priority 2000, dated 2005)"}
{"test_system": "rabbit aorta rings", "test": "Vasorelaxant effect in vitro (phenylephrine-contracted rabbit aorta rings)", "conditions": "Oryctolagus cuniculus, contraction generated by phenylephrine, concentration reducing height of control contraction by 50%", "experimental": "Rabbits are stunned by a blow to the back of the neck and are exsanguinated. The aorta is removed, freed of adherent tissue, divided into rings 1.5 mm wide and put singly under tension in 5 ml organ baths containing carbogen-gassed Krebs-Henseleit solution at 37° C. with the following composition (mM): NaCl: 119; KCl: 4.8; CaCl2×2H2O: 1; MgSO4×7 H2O: 1.4; KH2PO4: 1.2; NaHCO3: 25; glucose: 10. The force of contraction is detected with Statham UC2 cells, amplified and digitized via A/D converters (DAS-1802 HC, Keithley Instruments Munich) and recorded in parallel on chart recorders. A contraction is generated by adding phenylephrine to the bath cumulatively in increasing concentration. After several control cycles, the substance to be investigated is investigated in each further run in increing dosage in each case, and the height of the contraction is compared with the height of the contraction reached in the last preceding run. The concentration necessary to reduce the height of the control value by 50% (IC50) is calculated from this. The standard application volume is 5 μl, and the DMSO content in the bath solution corresponds to 0.1%.", "units": {"IC50": "nM"}}
{"smiles": "Nc1nc(-c2nn(Cc3ccccc3F)c3ncccc23)ncc1N1CCCCCC1=O", "note": "[Example 5]", "IC50": 1050}
{"smiles": "Nc1nc(-c2nn(Cc3ccccc3F)c3ncccc23)ncc1N1CCSC1=O", "note": "[Example 16]", "IC50": 1230}
{"smiles": "Nc1nc(-c2nn(Cc3ccccc3F)c3ncccc23)ncc1N1CCOC1=O", "note": "[Example 15]", "IC50": 1200}
{"smiles": "CC12CC1C(=O)N(c1cnc(-c3nn(Cc4ccccc4F)c4ncccc34)nc1N)C2=O", "note": "(centres unmarked) [Example 19]", "IC50": 410}
{"smiles": "CC1C(=O)N(c2cnc(-c3nn(Cc4ccccc4F)c4ncccc34)nc2N)C(=O)C1(C)C", "note": "(centres unmarked) [Example 13]", "IC50": 690}
{"smiles": "CC1(C)CN(c2cnc(-c3nn(Cc4ccccc4F)c4ncccc34)nc2N)C(=O)C1(C)C", "note": "[Example 9]", "IC50": 700}
{"smiles": "CC(=O)Nc1nc(-c2nn(Cc3ccccc3F)c3ncccc23)ncc1N1CCOC1=O", "note": "[Example 21, N-[2-[1-(2-Fluorebenzyl)-1H-pyrazolo[34-b]pyridin-3-yl]-5-(2-oxo-1,3-oxazolidin-3-yl)-4-pyrimidinyl]acetamide]", "IC50": 250}
{"smiles": "Nc1nc(-c2nn(Cc3ccccc3F)c3ncccc23)ncc1N1CCCC1=O", "note": "[Example 2]", "IC50": 1100}
{"smiles": "Nc1nc(-c2nn(Cc3ccccc3F)c3ncccc23)ncc1N1CCCCC1=O", "note": "[Example 3]", "IC50": 1990}
{"smiles": "CC1(C)OC(=O)N(c2cnc(-c3nn(Cc4ccccc4F)c4ncccc34)nc2N)C1=O", "note": "[Example 14, 3-{4-Amino-2-[1-(2-fluorobenzyl)-1H-pyrazolo[3,4-b]pyridin-3-yl]-5-pyrimidinyl}-5,5-dimethyl-1,3-oxazolidine-2,4-dione]", "IC50": 420}
{"smiles": "Nc1nc(-c2nn(Cc3ccccc3F)c3ncccc23)ncc1N1C(=O)c2ccccc2C1=O", "note": "[Example 22, 2-{4-Amino-2-[1-(2-fluorobenzyl)-1H-pyrazolo[3,4-b]pyridin-3-yl]-5-pyrimidinyl}-1H-isoindole-1,3(2H)-dione]", "IC50": 600}
